Test results from patent US9693997B2, “Antiviral compounds” (priority 2013, dated 2017).
Counter-ions that a name gives are not always drawn.

Tests used:
[1] = tested on: Pseudotyped HCV GT1b particles (HCVpp), entry into Huh7-high CD81 cells; assay: microbe, parasite or virus in culture; assay type: cell-based, HCV GT1b Con1 strain; conditions: Hepatitis C virus, GT1B, 72 h, read-out: HCVpp GT-1b (EC50, μM)
[2] = tested on: pseudotyped VSV G particles (VSVpp) in Huh7-high CD81 cells; assay: microbe, parasite or virus in culture; assay type: cell-based, vesicular stomatitis virus; conditions: Vesicular stomatitis virus, 72 h, read-out: VSVpp (EC50, μM)

Compound	EC50 [1] [µM]	EC50 [2] [µM]
CC(C)(C)OC(=O)N1CCCC(Oc2ccc(-c3c(Cl)cc(Nc4n[nH]c(N)n4)cc3C(F)(F)F)cc2)C1 (stereo not drawn) [Compound 129, 3-[4′-(5-Amino-1H-[1,2,4]triazol-3-ylamino)-6′-chloro-2′-trifluoromethyl-biphenyl-4-yloxy]-piperidine-1-carboxylic acid tert-butyl ester]	0.017	9.62
Nc1nc(Nc2cc(Cl)c(-c3ccc(OC4CCCNC4)cc3)c(C(F)(F)F)c2)n[nH]1 (stereo not drawn) [Compound 130, N*3*-[6-Chloro-4′-(piperidin-3-yloxy)-2-trifluoromethyl-biphenyl-4-yl]-1H-[1,2,4]triazole-3,5-diamine hydrochloride]	0.055	8.67
CC(C)(C)CCN1CCCC(Oc2ccc(-c3c(Cl)cc(Nc4n[nH]c(N)n4)cc3C(F)(F)F)cc2)C1 (stereo not drawn) [Compound 131, N*3*-{6-Chloro-4′-[1-(3,3-dimethyl-butyl)-piperidin-3-yloxy]-2-trifluoromethyl-biphenyl-4-yl}-1H-[1,2,4]triazole-3,5-diamine hydrochloride]	0.095	7.02
CN1CCCC(Oc2ccc(-c3c(Cl)cc(Nc4n[nH]c(N)n4)cc3C(F)(F)F)cc2)C1 (stereo not drawn) [Compound 132, N*3*-[6-Chloro-4′-(1-methyl-piperidin-3-yloxy)-2-trifluoromethyl-biphenyl-4-yl]-1H-[1,2,4]triazole-3,5-diamine hydrochloride]	0.088	6.13
Nc1nc(Nc2cc(Cl)c(-c3ccc(OC4CCCN(CCC(F)(F)F)C4)cc3)c(C(F)(F)F)c2)n[nH]1 (stereo not drawn) [Compound 133, N*3*-{6-Chloro-2-trifluoromethyl-4′-[1-(3,3,3-trifluoro-propyl)-piperidin-3-yloxy]-biphenyl-4-yl}-1H-[1,2,4]triazole-3,5-diamine hydrochloride]	0.13	> 10
CC(C)(C)OC(=O)NCCOc1ccc(-c2c(Cl)cc(Nc3n[nH]c(N)n3)cc2C(F)(F)F)cc1 [Compound 134, {2-[4′-(5-Amino-1H-[1,2,4]triazol-3-ylamino)-6′-chloro-2′-trifluoromethyl-biphenyl-4-yloxy]-ethyl}-carbamic acid tert-butyl ester]	0.081	> 10
NCCOc1ccc(-c2c(Cl)cc(Nc3n[nH]c(N)n3)cc2C(F)(F)F)cc1 [Compound 135, N*3*-[4′-(2-Amino-ethoxy)-6-chloro-2-trifluoromethyl-biphenyl-4-yl]-1H-[1,2,4]-triazole-3,5-diamine hydrochloride]	0.077	> 10
CC(C)(C)CCNCCOc1ccc(-c2c(Cl)cc(Nc3n[nH]c(N)n3)cc2C(F)(F)F)cc1 [Compound 136, N*3*-{6-Chloro-4′-[2-(3,3-dimethyl-butylamino)-ethoxy]-2-trifluoromethyl-biphenyl-4-yl}-1H-[1,2,4]triazole-3,5-diamine hydrochloride]	0.005	3.08
CC(C)(C)CCN(CCOc1ccc(-c2c(Cl)cc(Nc3n[nH]c(N)n3)cc2C(F)(F)F)cc1)CCC(C)(C)C [Compound 137, N*3*-(4′-{2-[Bis-(3,3-dimethyl-butyl-amino)-ethoxy}-6-chloro-2-trifluoromethyl-biphenyl-4-yl]-1H-[1,2,4]triazole-3,5-diamine]	0.062	> 10
CC(C)(C)OC(=O)N1CCC(Oc2ccc(-c3c(Cl)cc(Nc4n[nH]c(N)n4)cc3C(F)(F)F)cc2)CC1 [Compound 138, 4-[4′-(5-Amino-1H-[1,2,4]triazol-3-ylamino)-6′-chloro-2′-trifluoromethyl-biphenyl-4-yloxy]-piperidine-1-carboxylic acid tert-butyl ester]	0.162	> 10
Nc1nc(Nc2cc(Cl)c(-c3ccc(OC4CCNCC4)cc3)c(C(F)(F)F)c2)n[nH]1 [Compound 139, N*3*-[6-Chloro-4′-(piperidin-4-yloxy)-2-trifluoromethyl-biphenyl-4-yl]-1H-[1,2,4]triazole-3,5-diamine hydrochloride]	0.042	5.66
Nc1nc(Nc2cc(Cl)c(-c3ccc(OC4CCN(CCC(F)(F)F)CC4)cc3)c(C(F)(F)F)c2)n[nH]1 [Compound 140, N*3*-{6-Chloro-2-trifluoromethyl-4′-[1-(3,3,3-trifluoro-propyl)-piperidin-4-yloxy]-biphenyl-4-yl}-1H-[1,2,4]triazole-3,5-diamine hydrochloride]	0.111	> 10
CS(=O)(=O)CCN1CCC(Oc2ccc(-c3c(Cl)cc(Nc4n[nH]c(N)n4)cc3C(F)(F)F)cc2)CC1 [Compound 141, N*3*-{6-Chloro-4′-[1-(2-methanesulfonyl-ethyl)-piperidin-4-yloxy]-2-trifluoromethyl-biphenyl-4-yl}-1H-[1,2,4]triazole-3,5-diamine hydrochloride]	0.194	> 10
CS(=O)(=O)CCCN1CCC(Oc2ccc(-c3c(Cl)cc(Nc4n[nH]c(N)n4)cc3C(F)(F)F)cc2)CC1 [Compound 142, N*3*-{6-Chloro-4′-[1-(3-methanesulfonyl-propyl)-piperidin-4-yloxy]-2-trifluoromethyl-biphenyl-4-yl}-1H-[1,2,4]triazole-3,5-diamine hydrochloride]	0.242	> 10
COCCN1CCC(Oc2ccc(-c3c(Cl)cc(Nc4n[nH]c(N)n4)cc3C(F)(F)F)cc2)CC1 [Compound 143, N*3*-{6-Chloro-4′-[1-(2-methoxy-ethyl)-piperidin-4-yloxy]-2-trifluoromethyl-biphenyl-4-yl}-1H-[1,2,4]triazole-3,5-diamine hydrochloride]	0.231	8.98
Nc1nc(Nc2ccc(-c3ccccc3F)c(Cl)c2)n[nH]1 [Compound 146, N*3*-(2-Chloro-2′-fluoro-biphenyl-4-yl)-1H-[1,2,4]triazole-3,5-diamine]	2.88	29.4
Nc1nc(Nc2ccc(-c3ccccc3)c(C(F)(F)F)c2)n[nH]1 [Compound 149, N*3*-(2-Trifluoromethyl-biphenyl-4-yl)-1H-[1,2,4]triazole-3,5-diamine]	0.581	29.2
Nc1nc(Nc2ccc(-c3ccccc3F)c(C(F)(F)F)c2)n[nH]1 [Compound 150, N*3*-(2′-Fluoro-2-trifluoromethyl-biphenyl-4-yl)-1H-[1,2,4]triazole-3,5-diamine]	0.866	21.3
Nc1nc(Nc2ccc(-c3ccc(F)cc3)c(C(F)(F)F)c2)n[nH]1 [Compound 151, N*3*-(4′-Fluoro-2-trifluoromethyl-biphenyl-4-yl)-1H-[1,2,4]triazole-3,5-diamine]	0.356	26.5
Nc1nc(Nc2ccc(-c3ccc(F)c(F)c3)c(C(F)(F)F)c2)n[nH]1 [Compound 152, N*3*-(3′,4′-Difluoro-2-trifluoromethyl-biphenyl-4-yl)-1H-[1,2,4]triazole-3,5-diamine]	0.575	20.4
Nc1nc(Nc2ccc(-c3ccccc3Cl)c(C(F)(F)F)c2)n[nH]1 [Compound 153, N*3*-(2′-Chloro-2-trifluoromethyl-biphenyl-4-yl)-1H-[1,2,4]triazole-3,5-diamine]	1.81	9.61
CS(=O)(=O)c1ccc(-c2ccc(Nc3n[nH]c(N)n3)cc2Cl)cc1 [Compound 154, N*3*-(2-Chloro-4′-methanesulfonyl-biphenyl-4-yl)-1H-[1,2,4]triazole-3,5-diamine]	2.47	16.4
Nc1nc(Nc2ccc(-c3ccccc3Cl)c(Cl)c2)n[nH]1 [Compound 155, N*3*-(2,2′-Dichloro-biphenyl-4-yl)-1H-[1,2,4]triazole-3,5-diamine]	1.66	7.46
CSc1ccc(-c2ccc(Nc3n[nH]c(N)n3)cc2Cl)c(F)c1 [Compound 156, N*3*-(2-Chloro-2′-fluoro-4′-methylsulfanyl-biphenyl-4-yl)-1H-[1,2,4]triazole-3,5-diamine]	3.77	11.3
CS(=O)(=O)c1ccc(-c2ccc(Nc3n[nH]c(N)n3)cc2Cl)c(F)c1 [Compound 157, N3-(2-chloro-2′-fluoro-4′-(methylsulfonyl)biphenyl-4-yl)-1H-1,2,4-triazole-3,5-diamine]	1.33	5.16
NC(=O)c1cccc(-c2c(Cl)cc(Nc3n[nH]c(N)n3)cc2Cl)c1 [Compound 158, 4′-(5-amino-1H-1,2,4-triazol-3-ylamino)-2′,6′-dichlorobiphenyl-3-carboxamide]	0.539	> 10
Nc1nc(Nc2cc(Cl)c(-c3ccc(S(=O)(=O)NCCO)cc3)c(Cl)c2)n[nH]1 [Compound 160, 4′-(5-Amino-1H-[1,2,4]triazol-3-ylamino)-2′,6′-dichloro-biphenyl-4-sulfonic acid (2-hydroxy-ethyl)-amide]	0.063	10.6
Nc1nc(Nc2cc(Cl)c(-c3ccc(S(=O)(=O)NCCO)cc3)c(C(F)(F)F)c2)n[nH]1 [Compound 161, 4′-(5-Amino-1H-[1,2,4]triazol-3-ylamino)-2′-chloro-6′-trifluoromethyl-biphenyl-4-sulfonic acid (2-hydroxy-ethyl)-amide]	0.058	26.8
Nc1nc(Nc2cc(Cl)c(-c3ccc(S(=O)(=O)CCO)cc3)c(C(F)(F)F)c2)n[nH]1 [Compound 162, 2-[4′-(5-Amino-1H-[1,2,4]triazol-3-ylamino)-2′-chloro-6′-trifluoromethyl-biphenyl-4-sulfonyl]-ethanol]	0.126	> 10
COc1cc(-c2c(Cl)cc(Nc3n[nH]c(N)n3)cc2C(F)(F)F)ccc1S(=O)(=O)NC1CCN(C(=O)OC(C)(C)C)CC1 [Compound 163, tert-butyl 4-(4′-(5-amino-1H-1,2,4-triazol-3-ylamino)-2′-chloro-3-methoxy-6′-(trifluoromethyl)biphenyl-4-ylsulfonamido)piperidine-1-carboxylate]	0.005	> 10
